Assay results as given in PubChem BioAssay AID292 (DTP/NCI, 2004).
Several values for one entry are separate records, joined by “and”; a condition that tells them apart may be missing. Equal entries are not always repeated. Toxic doses and inconclusive results are not listed.

Tested on: B6C3F1 mice, ip Sarcoma M5076, median survival T/C
Test: NCI In Vivo Anticancer Drug Screen. Data for tumor model Sarcoma M5076 (intraperitoneal) in B6C3F1 mice
Conditions: endpoint: median survival time, schedule: Q04DX004 (ip), higher = longer survival
Summary of the method: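 Survival measured in treated (T) and vehicle control (C) mice with transplantable tumour; result given as T divided by C.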

[1] = dose: 37.5 mg/kg/injection, vehicle: saline with Tween-80
[2] = dose: 75.0 mg/kg/injection, vehicle: saline with Tween-80
[3] = dose: 150.0 mg/kg/injection, vehicle: saline with Tween-80
[4] = dose: 300.0 mg/kg/injection, vehicle: saline with Tween-80
[5] = dose: 50.0 mg/kg/injection, vehicle: Klucel (hydroxypropylcellulose) (HPC)
[6] = dose: 100.0 mg/kg/injection, vehicle: Klucel (hydroxypropylcellulose) (HPC)
[7] = dose: 200.0 mg/kg/injection, vehicle: Klucel (hydroxypropylcellulose) (HPC)
[8] = dose: 6.25 mg/kg/injection, vehicle: water
[9] = dose: 12.5 mg/kg/injection, vehicle: water
[10] = dose: 50.0 mg/kg/injection, vehicle: saline with Tween-80
[11] = dose: 100.0 mg/kg/injection, vehicle: saline with Tween-80
[12] = dose: 400.0 mg/kg/injection, vehicle: saline with Tween-80
[13] = dose: 200.0 mg/kg/injection, vehicle: saline with Tween-80
[14] = dose: 50.0 mg/kg/injection, vehicle: water
[15] = dose: 100.0 mg/kg/injection, vehicle: water
[16] = dose: 200.0 mg/kg/injection, vehicle: water
[17] = dose: 400.0 mg/kg/injection, vehicle: Klucel (hydroxypropylcellulose) (HPC)
[18] = dose: 25.0 mg/kg/injection, vehicle: saline with Tween-80
[19] = dose: 18.75 mg/kg/injection, vehicle: saline with Tween-80

With `CCOC(=O)N(C)N=NC` the T/C (dose: 1.3 mg/kg/injection, vehicle: saline) was 110 % of control, the T/C (dose: 2.16 mg/kg/injection, vehicle: saline) was 119 % of control and the T/C (dose: 3.6 mg/kg/injection, vehicle: saline) was 122 % of control. For the same molecule, the T/C (dose: 10.0 mg/kg/injection, vehicle: saline) was 155 % of control, the T/C (dose: 30.0 mg/kg/injection, vehicle: saline) was 158 % of control and the T/C (dose: 60.0 mg/kg/injection, vehicle: saline) was 168 % of control.
For `O=C(CN1CCC(O)(c2ccc(F)cc2)CC1)N1CCN(C/C=C/c2ccccc2)CC1`, the T/C [1] was 103 % of control, the T/C [2] was 100 % of control and the T/C [3] was 102 % of control. For the same molecule, the T/C [4] was 94 % of control and the T/C (dose: 600.0 mg/kg/injection, vehicle: saline with Tween-80) was 95 % of control.
For `Cc1c2ccccc2c(C)c2c1cc(C(=O)O)c1ccccc12`, the T/C (dose: 12.5 mg/kg/injection, vehicle: sodium bicarbonate) was 113 % of control, the T/C (dose: 25.0 mg/kg/injection, vehicle: sodium bicarbonate) was 113 % of control and the T/C (dose: 50.0 mg/kg/injection, vehicle: sodium bicarbonate) was 113 % of control. For the same molecule, the T/C (dose: 200.0 mg/kg/injection, vehicle: sodium bicarbonate) was 124 % of control.
With `NCCn1c(-c2ccccc2)nc2ccccc2c1=O` the T/C (dose: 25.0 mg/kg/injection, vehicle: Klucel (hydroxypropylcellulose) (HPC)) was 106 % of control, the T/C [5] was 102 % of control and the T/C [6] was 109 % of control. For the same molecule, the T/C [7] was 94 % of control.
`COc1cc([C@@H]2c3cc4c(c(O)c3C[C@H]3COC(=O)[C@@H]32)OCO4)cc(OC)c1OC` was tested, and the T/C (dose: 4.8 mg/kg/injection, vehicle: suspension in saline) was 159 % of control, the T/C (dose: 8.0 mg/kg/injection, vehicle: suspension in saline) was 163 % of control and the T/C (dose: 13.3 mg/kg/injection, vehicle: suspension in saline) was 155 % of control.
In the case of `COc1ccc(-n2c(CSc3ccc(Cl)cc3)n[nH]c2=S)cc1`, the T/C [1] is reported as 96 % of control, the T/C [2] is reported as 101 % of control and the T/C [3] is reported as 96 % of control. For the same molecule, the T/C [4] was 87 % of control.
With `CNCCN=c1ccc2c3c1c(O)c1c(O)ccc(=O)c1c3[nH]n2CCNCCO` the T/C (dose: 0.75 mg/kg/injection, vehicle: water) was 156 % of control, the T/C (dose: 1.5 mg/kg/injection, vehicle: water) was 162 % of control and the T/C (dose: 3.0 mg/kg/injection, vehicle: water) was 204 % of control. The T/C [8] was 245 % of control and the T/C [9] was 90 % of control.
For `O=c1[nH]c2cc3c(cc2n2cccc12)oc1ccccc13`, the T/C [10] was 90 % of control, the T/C [11] was 98 % of control and the T/C [12] was 90 % of control.
In the case of `Clc1cc2c(nn1)Nc1ccccc1S2`, the T/C [10] is reported as 100 % of control, the T/C [11] is reported as 95 % of control and the T/C [13] is reported as 95 % of control.
In the case of `Nc1nc(C=O)nc2c1ncn2C1OC(CO)C(O)C1O` (configuration not stated), the T/C [9] is reported as 104 % of control, the T/C (dose: 25.0 mg/kg/injection, vehicle: water) is reported as 104 % of control and the T/C [14] is reported as 106 % of control. The T/C [15] was 109 % of control and the T/C [16] was 123 % of control.
For `COc1ccc2c(c1)-c1nn(CCCN(C)C)c3ccc([N+](=O)[O-])c(c13)N2`, the T/C [8] was 118 % of control, the T/C [9] was 120 % of control and the T/C [14] was 156 % of control and 170 % of control. The T/C [15] was 96 % of control.
In the case of `O=C1[C@@H]2C3C=CC([C@H]4C(=O)N(CO)C(=O)[C@@H]34)[C@@H]2C(=O)N1CO`, the T/C [6] is reported as 102 % of control, the T/C [7] is reported as 102 % of control and the T/C [17] is reported as 98 % of control.
With `Cc1ccc(C(=Nc2ccccc2)N=P(c2ccccc2)(c2ccccc2)c2ccccc2)cc1` the T/C [18] was 106 % of control and the T/C [10] was 93 % of control.
In the case of `COc1nc(C(Cl)(Cl)Cl)c(Cl)c(OC)c1Cl`, the T/C [5] is reported as 99 % of control, the T/C [6] is reported as 114 % of control and the T/C (dose: 179.0 mg/kg/injection, vehicle: Klucel (hydroxypropylcellulose) (HPC)) is reported as 152 % of control. The T/C (dose: 179.6 mg/kg/injection, vehicle: Klucel (hydroxypropylcellulose) (HPC)) was 121 % of control and the T/C [17] was 168 % of control.
`O=c1c(O)c(O)c1=O.[NH2-].[NH2-].[NH2-].[NH2-].[NH2-].[Ru+5]` was tested, and the T/C (dose: 6.25 mg/kg/injection, vehicle: suspension in saline) was 98 % of control, the T/C (dose: 12.5 mg/kg/injection, vehicle: suspension in saline) was 97 % of control and the T/C (dose: 25.0 mg/kg/injection, vehicle: suspension in saline) was 98 % of control.
`CC(C)NCC(O)CC(c1ccccc1)c1ccccc1` (configuration not stated) was tested, and the T/C (dose: 12.5 mg/kg/injection, vehicle: saline with Tween-80) was 95 % of control, the T/C [18] was 101 % of control and the T/C [10] was 98 % of control. For the same molecule, the T/C [11] was 91 % of control.
For `CN1C(=O)OC(c2ccc(Cl)cc2)C1=O` (configuration not stated), the T/C [5] was 92 % of control, the T/C [6] was 93 % of control and the T/C [7] was 94 % of control. The T/C [17] was 97 % of control.
In the case of `C[CH2][Sn]([CH2]C)([CH2]C(=O)OC)[CH2]C(=O)OC`, the T/C (dose: 1.5 mg/kg/injection, vehicle: saline with Tween-80) is reported as 96 % of control, the T/C (dose: 3.0 mg/kg/injection, vehicle: saline with Tween-80) is reported as 93 % of control and the T/C (dose: 6.0 mg/kg/injection, vehicle: saline with Tween-80) is reported as 95 % of control. For the same molecule, the T/C (dose: 12.0 mg/kg/injection, vehicle: saline with Tween-80) was 92 % of control.
`CC(=O)NO` was tested, and the T/C [15] was 97 % of control and 100 % of control and 105 % of control, the T/C [16] was 101 % of control and 103 % of control and 104 % of control and the T/C (dose: 400.0 mg/kg/injection, vehicle: water) was 107 % of control and 109 % of control. For the same molecule, the T/C (dose: 800.0 mg/kg/injection, vehicle: water) was 106 % of control and 108 % of control and the T/C (dose: 1600.0 mg/kg/injection, vehicle: water) was 113 % of control and 115 % of control.
`CCOc1ccc(N2C(=O)C(=O)C(C(C)=O)C2=O)cc1` (configuration not stated) was tested, and the T/C [5] was 102 % of control, the T/C [6] was 102 % of control and the T/C [7] was 101 % of control. For the same molecule, the T/C [17] was 100 % of control.
`N#CC1C(=O)NC(=S)NC1c1ccc(C2CC(=O)NC(=S)N2)cc1` (configuration not stated) was tested, and the T/C [10] was 93 % of control, the T/C [11] was 106 % of control and the T/C [13] was 94 % of control. The T/C [12] was 90 % of control and the T/C (dose: 800.0 mg/kg/injection, vehicle: saline with Tween-80) was 92 % of control.
`CCn1c2ccc(N)cc2c2c3ncc4cccn4c3ccc21` was tested, and the T/C [1] was 101 % of control, the T/C [2] was 94 % of control and the T/C [3] was 97 % of control. The T/C [4] was 89 % of control.
With `O=C(O)c1cc(C(=O)O)c(C(=O)O)cc1C(=O)O.[NH2-].[NH2-].[NH2-].[NH2-].[Pt+2].[Pt+2]` the T/C (dose: 0.12 mg/kg/injection, vehicle: water) was 99 % of control, the T/C (dose: 0.25 mg/kg/injection, vehicle: water) was 112 % of control and the T/C (dose: 0.5 mg/kg/injection, vehicle: water) was 100 % of control. For the same molecule, the T/C (dose: 1.0 mg/kg/injection, vehicle: water) was 97 % of control, the T/C (dose: 2.0 mg/kg/injection, vehicle: water) was 94 % of control and the T/C (dose: 4.0 mg/kg/injection, vehicle: water) was 103 % of control and 108 % of control. For the same molecule, the T/C (dose: 8.0 mg/kg/injection, vehicle: water) was 113 % of control and 119 % of control, the T/C (dose: 32.0 mg/kg/injection, vehicle: water) was 150 % of control and 241 % of control and the T/C (dose: 64.0 mg/kg/injection, vehicle: water) was 250 % of control.
In the case of `COC1=CC(=O)C(OC)=C(OC)C1=O`, the T/C [19] is reported as 95 % of control, the T/C [1] is reported as 95 % of control and the T/C [2] is reported as 99 % of control. The T/C [3] was 97 % of control and the T/C [4] was 93 % of control.
For `Cc1ccc(-n2c(CSc3ccc(Cl)cc3)nnc2SCc2nc3ccccc3[nH]2)cc1`, the T/C [19] was 95 % of control, the T/C [1] was 104 % of control and the T/C [2] was 100 % of control. For the same molecule, the T/C [3] was 95 % of control.
